Here are results for three compounds from US20090326003A1, “PYRAZOLO (3, 4-B) PYRIDINE DERIVATIVES AS PDE4 INHIBITORS” (priority 2006, published 2009).

The subject of the experiment is LPS-induced pulmonary neutrophilia. Briefly: LPS induced pulmonary neutrophilia in rats, intratracheally administered PDE4 inhibitors. As to conditions: rat, intratracheal (i.t.) 2 hours prior to LPS challenge, wet suspension in saline/tween; for inhibition of the neutrophilia: dose not stated. The format is in vivo. The text has this: This assay is an animal model of inflammation in the lung—specifically neutrophilia induced by lipopolysaccharide (LPS)— and allows the study of putative inhibition of such neutrophilia (anti-inflammatory effect) by intratracheally (i.t.) administered PDE4 inhibitors. The PDE4 inhibitors are preferably in dry powder or wet suspension form. I.t. administration is one model of inhaled administration, allowing topical delivery to the lung.
Animals: Male CD (Sprague Dawley Derived) rats supplied by Charles River, Raleigh, N.C., USA or Charles River, United Kingdom are housed in groups of 5 rats per cage, acclimatized after delivery for at least 5 days with bedding/nesting material regularly changed, fed on SDS diet R1 pelleted food given ad lib, and supplied with daily-changed pasteurized animal grade drinking water.
Device for wet suspension administration: This is similar to the above but a blunt dosing needle, whose forward end is slightly angled to the needle axis, is used, with a flexible plastic portex canula inserted into the needle.
Wet suspensions of the drug (aqueous) can be prepared by adding the required volume of vehicle to the drug; the vehicle used can for example be saline alone or a mixture of saline/tween (e.g. 0.2% tween 80). The wet suspension is usually sonicated for ca. 10 minutes prior to use.
Preparation, and dosing with PDE 4 inhibitor: Rats are anaesthetized by placing the animals in a sealed Perspex chamber and exposing them to a gaseous mixture of isoflurane (4.5%), nitrous oxide (3 litres.minute^−1) and oxygen (1 litre.minute^−1). Once anaesthetized, the animals are placed onto a stainless steel i.t. dosing support table. They are positioned on their back at approximately a 35° angle. A light is angled against the outside of the throat to highlight the trachea. […]
Neutrophil cell counts: The Bronchoalveolar lavage (BAL) samples are centrifuged at ca. 1300 rpm for ca. 7 minutes. […] The total cells are also counted from the resuspension. From these two counts, the total numbers of neutrophils in the BAL are determined. […]

For `CCn1ncc2c(NC3CCOCC3)c(CNC(=O)c3cccc(-c4cccc(C(=O)NCc5c(C)nc6c(cnn6CC)c5NC5CCOCC5)c4)c3)c(C)nc21` [Example 29, N,N′-bis{[1-ethyl-6-methyl-4-(tetrahydro-2H-pyran-4-ylamino)-1H-pyrazolo[3,4-b]pyridin-5-yl]methyl}-3,3′-biphenyldicarboxamide], the “inhibition of the neutrophilia” value is listed as “about 40%”.
Turning to `CCc1nc2c(cnn2CC)c(NC2CCOCC2)c1CNC(=O)c1ccc(C(=O)NCc2c(CC)nc3c(cnn3CC)c2NC2CCOCC2)o1` [Example 35, N,N′-bis{[1,6-diethyl-4-(tetrahydro-2H-pyran-4-ylamino)-1H-pyrazolo[3,4-b]pyridin-5-yl]methyl}-2,5furandicarboxamide], the “inhibition of the neutrophilia” value is listed as “about 43%”.
On to `CCc1nc2c(cnn2CC)c(NC2CCOCC2)c1CNC(=O)c1ccc(-c2ccc(C(=O)NCc3c(CC)nc4c(cnn4CC)c3NC3CCOCC3)cc2)cc1` [Example 23, N,N′-bis{[1,6-diethyl-4-(tetrahydro-2H-pyran-4-ylamino)-1H-pyrazolo[3,4-b]pyridin-5-yl]methyl}-4,4′-biphenyldicarboxamide], for which the “ED50 for inhibition of neutrophilia” value is “about 50 micrograms/kg body weight”.
